Test results as given in the supplement of paper PMC11061612.

Assays:
[1] = system: AMO-1 (Plasma Cell Myeloma); experiment: Bliss excess, mean over the matrix (fraction); higher = more synergy
Summary of the method: (§1)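 After 24 hours at 37°C and 5% CO2 in 1536-well plates, cells in DMEM/F12 or RPMI plus 10% FBS received two-drug dose matrices for 72 hours. Viability came from CellTiter-Glo 2.0 luminescence and was scaled as inhibition, anchored at 0 by vehicle wells and at 1 by blank wells. Combination Emax is taken as the second-highest inhibition in the matrix, and Bliss excess as the observed combination effect less EA + EB − EA·EB, with EA and EB the single-agent effects.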

[2] = system: BT-549 (Breast Carcinoma); experiment: as above
Summary of the method: as §1

[3] = system: Ca9-22 (Head and Neck Carcinoma); experiment: as above
Summary of the method: as §1

D-263MG (Glioblastoma) = experiment: as above
Summary of the method: as §1

[4] = system: EFM-19 (Breast Carcinoma); experiment: as above
Summary of the method: as §1

EW-24 (Ewing's Sarcoma) = experiment: as above
Summary of the method: as §1

[5] = system: KYSE-450 (Esophageal Squamous Cell Carcinoma); experiment: as above
Summary of the method: as §1

[6] = system: LU-65 (Non-Small Cell Lung Carcinoma); experiment: as above
Summary of the method: as §1

NB69 (Neuroblastoma) [7] = experiment: as above
Summary of the method: as §1

[8] = system: NCI-H358 (Lung Adenocarcinoma); experiment: as above
Summary of the method: as §1

[9] = system: NCI-H727 (Other Solid Carcinomas); experiment: as above
Summary of the method: as §1

[10] = system: PANC-04-03 (Pancreatic Carcinoma); experiment: as above
Summary of the method: as §1

TGW (Neuroblastoma) = experiment: as above
Summary of the method: as §1

UACC-62 (Melanoma) = experiment: as above
Summary of the method: as §1

YH-13 (Glioblastoma) = experiment: as above
Summary of the method: as §1

[11] = system: Ca9-22 (Head and Neck Carcinoma); experiment: combination Emax (second highest fraction inhibited in the dose matrix, 72 h); higher = more inhibition; extreme values may be limits of the assay
Summary of the method: as §1

[12] = system: Caov-4 (Ovarian Carcinoma); experiment: as above
Summary of the method: as §1

[13] = system: EoL-1-cell (Acute Myeloid Leukemia); experiment: as above
Summary of the method: as §1

NB69 (Neuroblastoma) [14] = experiment: as above
Summary of the method: as §1

[15] = system: SW13 (Other Solid Carcinomas); experiment: as above
Summary of the method: as §1
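Wherever Bliss excess, mean over the matrix is given: after 72 h of two-drug dosing.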

| SMILES | Bliss excess [1] | Bliss excess [2] | Bliss excess [3] | Bliss excess (D-263MG (Glioblastoma)) | Bliss excess [4] | Bliss excess (EW-24 (Ewing's Sarcoma)) | Bliss excess [5] | Bliss excess [6] | Bliss excess (NB69 (Neuroblastoma) [7]) | Bliss excess [8] | Bliss excess [9] | Bliss excess [10] | Bliss excess (TGW (Neuroblastoma)) | Bliss excess (UACC-62 (Melanoma)) | Bliss excess (YH-13 (Glioblastoma)) | combination Emax [11] | combination Emax [12] | combination Emax [13] | combination Emax (NB69 (Neuroblastoma) [14]) | combination Emax [15] |
| --- | --- | --- | --- | --- | --- | --- | --- | --- | --- | --- | --- | --- | --- | --- | --- | --- | --- | --- | --- | --- |
| COc1cc2ncnc(Nc3ccc(F)c(Cl)c3)c2cc1OCCCN1CCOCC1 [Gefitinib] + CC(C)n1c(=O)n(C)c2cnc3cc(F)c(-c4ccc(OCCCN5CCCCC5)nc4)cc3c21 [AZD1390] (first compound max 10 µM, 7x7, partner max 0.3 µM) | -0.0485 | -0.0549 | 0.0579 | -0.0401 | -0.0722 | -0.0759 | -0.0177 | -0.0614 | -0.0615 | -0.0493 | -0.108 | -0.0853 | -0.0438 | -0.0358 | -0.0848 | 0.625 | 0.171 | 0.571 | 0.369 | 0.724 |
| CN(CCO)CC[C@H](CSc1ccccc1)Nc1ccc(S(=O)(=O)NC(=O)c2ccc(N3CCC([C@@H](O)c4ccccc4-c4ccc(Cl)cc4)CC3)cc2)cc1S(=O)(=O)C(F)(F)F [AZD4320] + Cn1cnc2c(F)c(Nc3ccc(Br)cc3Cl)c(C(=O)NOCCO)cc21 [Selumetinib] (first compound max 1 µM, 7x7, partner max 3 µM) | 0.0579 | -0.0231 | 0.0415 | -0.0094 | -0.102 | -0.0352 | 0.0177 | 0.0176 | -0.0973 | 0.0054 | 0.0963 | 0.0708 | 0.0147 | -0.0035 | -0.0219 | 0.593 | 0.617 | 1 | 0.998 | 0.544 |
| N#Cc1cnc(Nc2cc(NC[C@H]3CNCCO3)c(C(F)(F)F)cn2)cn1 [SRA737] + C=CCn1c(=O)c2cnc(Nc3ccc(N4CCN(C)CC4)cc3)nc2n1-c1cccc(C(C)(C)O)n1 [AZD1775] (first compound max 10 µM, partner max 1 µM) | 0.0986 | 0.0819 | 0.154 | 0.0096 | -0.044 | 0.0488 | 0.119 | 0.0233 | 0.163 | -0.0155 | 0.0694 | 0.0182 | -0.0382 | 0.0048 | 0.0804 | 0.957 | 0.854 | 1 | 0.969 | 0.218 |
| Cc1cc2ncnn2cc1Nc1ncc2c(n1)n(C1CCOCC1)c(=O)n2C [AZD7648] + C[C@@H]1COCCN1C2=NC(=NC(=C2)C3(CC3)[S@](=N)(=O)C)C4=C5C=CNC5=NC=C4 [AZD6738] (first compound max 10 µM, 7x7, partner max 10 µM) | -0.0184 | 0.0207 | 0.0578 | -0.0206 | 0.0323 | -0.0023 | 0.0281 | -0.0392 | 0.0172 | 0.0099 | 0.0381 | 0.0123 | 0.0388 | 0.0529 | 0.0821 | 0.919 | 0.916 | 0.967 | 0.865 | 0.499 |
| CN(CCO)CC[C@H](CSc1ccccc1)Nc1ccc(S(=O)(=O)NC(=O)c2ccc(N3CCC([C@@H](O)c4ccccc4-c4ccc(Cl)cc4)CC3)cc2)cc1S(=O)(=O)C(F)(F)F [AZD4320] + C[C@@H](Nc1cc(F)cc(F)c1)c1cc(C(=O)N(C)C)cc2c(=O)cc(N3CCOCC3)oc12 [AZD8186] (first compound max 1 µM, 7x7, partner max 3 µM) | 0.0318 | -0.0156 | -0.0194 | 0.0288 | -0.0426 | -0.0214 | -0.07 | -0.0216 | -0.0381 | -0.0461 | 0.0309 | 0.0202 | -0.027 | 0.102 | 0.0513 | 0.648 | 0.461 | 1 | 0.97 | 0.592 |
